Here are results for one substance from patent publication US4599352A, “Antineoplastic platinum (IV) complexes and compositions” (priority 1984, dated 1986).

The nature of data set [1]: Solubility of platinum complexes (Table I and preparation examples). Format: physicochemical.
Data set [2] in a line: Comparative water solubilities of platinum complexes (Table 7).

In the case of “Tetrachloro-cis-1,2-cyclohexanediamine platinum (IV)”, in data set [1] (DMF), the “Solubility in DMF” value was 250 mg/mL. The substance also gave a Solubility in methanol in data set [1] (methanol) of 50 mg/mL. Also, the Solubility in methanol-acetone in data set [1] (methanol-acetone (1:1)) was determined as 200 mg/mL. The same substance displayed a Solubility in water in data set [1] (water) of less than 10 mg/mL. The “Water Solubility” value in data set [2] (Table 7) is recorded as 2,000 mg/L. Besides, the “Water Solubility mg/L / Mouse Optimal Dose (mg/kg)” value in data set [2] (ratio of water solubility to mouse optimal dose) is 250 mg/L / (mg/kg).
